Assay [1] concerns RU570-VCV virus. Put plainly: Viral replication assay in PBL (p24 ELISA), vicriviroc-passaged culture. It is filed as cell-based, HIV-1. As for the experimental part:
The Hut 78 derived PM-1 (Lusso, P., et al (1995). J Virol 69(6), 3712-20) T-cell line was infected with a parental PBL stock of HIV-1 RU570 for one week prior to the initiation of vicriviroc selection starting at 0.1 nM. PM-1 cell cultures were passaged weekly by transferring 1 ml of cell culture supernatant and one tenth of the infected cells into fresh PM-1 cultures (1-2×10^6) in the absence (passage control culture, RU570-PC) or presence (RU570-VCV) of vicriviroc. Culture supernatants were subsequently used to re-infect fresh PM-1 cells weekly. Viral supernatants and infected cells were collected periodically for p24 antigen titers, vicriviroc sensitivity testing in PBL described below in the viral replication assay section, and sequence analysis. […] To select for minor populations of highly resistant variants that may have emerged, the concentration of vicriviroc was escalated to 10 μM at week 36 and cultures were maintained in 10 μM vicriviroc until viral replication remained consistent. By approximately week 56, VCV-treated cultures were replicating to similar levels compared to the passage control cultures and maintained consistently robust growth up to 93 weeks when cultures were terminated.
IL-2/PHA-stimulated PBL were seeded into 96-well plates (200,000 cells/well) pretreated with an equal volume of medium plus vicriviroc or medium only at 37° C. for 1 hour. The plates were centrifuged at 300 g for 10 min and the media aspirated and replaced with 20 μl of fresh medium with or without compound. The cells were then infected in triplicate using 20 μl of viral supernatant (RU570) from 3 hr to overnight at 37° C. The cells were washed twice with PBS to remove residual viral inoculums and cultured in the presence or absence of vicriviroc for 4-6 days. Viral replication was assessed by measuring p24 antigen production by ELISA. The IC50 and IC90 values for vicriviroc susceptibility with these viruses was determined by analyzing dose-response curves using a 4-parameter logistic curve fit model with Prism GraphPad Software Version 4.0 (San Diego, Calif.).

Assay [2] relates to HIV-1 particles pseudotyped with VCVres chimeric RU570-PC envelopes (RU570-PC-C2-C3res, -C2-V4res, -C2-V5res). As to the kind of experiment: Single-cycle HIV-1 pseudovirus luciferase assay in U87-CD4-CCR5 cells. It counts as cell-based. How it is done:
(§1) HIV-1 pseudoviruses were produced in 293T cells by calcium phosphate transfection of pNL4-3E^−Luc^+ and HIV-1 envelope expression vectors using ProFection® Mammalian Transfection system (Promega Corp., Madison, Wis.). HIV-1 pseudovirus was harvested in culture supernatants 48 hrs post-transfection and supernatants were clarified of cell debris by centrifugation at 1500 g for 10 min. Single-cycle infection assays were generally performed on the same day HIV-1 pseudovirus was harvested. To assess susceptibility to CCR5 co-receptor antagonists, 5,000 U87-CD4-CCR5 cells/well were seeded into 96-well luminometer plates (Perkin Elmer) and plates were incubated overnight at 37° C. The next day serial 10-fold dilutions of inhibitor in cell culture medium (10 μM→1.0 μM) were added to wells one hour prior to the addition of HIV-1 pseudovirus plus inhibitor. Plates were incubated for 72 hours, and luciferase activity was analyzed by adding 50 μl of BrightGlo™ luciferase assay buffer and plates were read on a Dynex luminometer (300 mSec/well). Relative light units (RLU) were normalized to virus dose, measured as ng p24, and percent inhibition, was calculated as follows: 100−[average normalized RLU for HIV-1 pseudovirus plus drug/average normalized RLU for HIV-1 pseudovirus from control wells without drug]×100. Dose-response data was analyzed using a non-linear regression 4-parameter logistic curve fit program with Prism GraphPad Software Version 4.0 (San Diego, Calif.).

Assay [3] has as its system HIV-1 particles pseudotyped with ADA gp160. The assay is described as above. It is filed as cell-based. As for the experimental part:
as §1

The test system of assay [4] is HIV-1 particles pseudotyped with RU570-PC gp160 envelope. The description is as above. It is filed as cell-based. As for the experimental part:
as §1

Assay [5] has as its system NL4-3-AD8-V3res virus. Put plainly: Vicriviroc susceptibility assay with replication competent virus in U87-CD4-CCR5 cells. It counts as cell-based, HIV-1. The settings on record: Human immunodeficiency virus 1, NL43, multi-cycle infection. The source says:
(§2) The pNL4-3-AD8 molecular clone was modified by deleting 650 bp of cDNA sequence flanking the 5′LTR, thereby creating a unique Stu I site within gp120. The ADA-V3res and ADA-C2-V5res chimeric envelopes were digested with StuI and AleI restriction endonucleases and the 1.2 kb env fragments corresponding to at 203-608 (HXB2 gp160 aa coordinates) were gel purified on 1% agarose. These fragments were cloned directly into pNL4-3-AD8 digested with the same restriction endonucleases and all constructs were verified by DNA sequence analysis.
(§3) 293T cells were transfected with pNL4-3-AD8, pNL4-3-AD8-C2-V5res, and pNL4-3-AD8-V3res molecular clones using Superfect transfection reagent (Qiagen Corp., Vencia, Calif.) and HIV-1 virus was harvested in supernatants 48 hr post transfection.
(§4) CCR5 inhibitor resistance was previously reported to be influenced by the assay format in which resistance is evaluated (Pugach, P., et al (2007). Virology 361(1), 212-28). […] In order to evaluate differences in susceptibility profiles between single-cycle and multi-cycle infection assays in U87-CD4-CCR5 cells, we generated replication competent viruses expressing the chimeric gp120 envelopes. Restriction fragments corresponding to HXB2 aa 203-608 within ADA-V3res and ADA-C2-V5res chimeric envelopes were transferred to an NL4-3-AD8 HIV-1 molecular clone by unique restriction-site digestion and relegation. […]

Assay [6] deals with NL4-3-AD8 virus. The description is as above. It counts as cell-based, HIV-1. The note with it: Human immunodeficiency virus 1, NL43, multi-cycle infection.
From the text: as §2, §3, §4

For assay [7], the system named is pseudoviruses with ADA-C2-V5res chimeric envelope. Put plainly: Single-cycle HIV-1 pseudovirus luciferase assay in U87-CD4-CCR5 cells. It counts as cell-based. As for the experimental part: (§5) Homologous recombination of the V2-C5 gp120 fragment from RU570-PC gp120 clone #16 and RU570-VCVres gp120 clone #8 was performed following restriction endonuclease digestion of constructs with MfeI and gel purification of the 838 bp V2-C5 gp120 fragments (HXB2 gp120 nucleotides 533-1431; gp120 at position 185-478). The pSV7d-ADA gp160 expression vector was digested with BglII and BstZ17I restriction endonucleases, alkaline phosphatase treated and the 5.1 kb vector was gel purified on 1% agarose. A 50:1 ratio of V2-C5res gp120 fragment to vector was used to transform chemically-competent BJ5183 E. coli, and individual colonies were screened by PCR for successful recombination.
as §1

Assay [8] deals with pseudoviruses with ADA-V3res chimeric envelope. Described as above. It counts as cell-based. As for the experimental part: as §5, §1
Assay [9] concerns pseudovirus with RU570-PC-C2-V5res chimeric envelope. As to the kind of experiment: Single-cycle HIV-1 pseudovirus assay, effect of viral inoculum. The settings on record: very high inoculum, 90 ng p24. It is filed as cell-based. As for the experimental part:
as §1, with “The next day serial 10-fold dilutions of inhibitor in cell culture medium (10 μM→1.0 μM) were added to wells one hour prior to the addition of HIV-1 pseudovirus plus inhibitor.” left out

Assay [10] concerns RU570 passage control virus (RU570-PC). As to the kind of experiment: Viral replication assay in PBL (p24 ELISA), passage control culture. It counts as cell-based, HIV-1. The settings on record: through 93 weeks of cell culture. How it is done: The Hut 78 derived PM-1 (Lusso, P., et al (1995). J Virol 69(6), 3712-20) T-cell line was infected with a parental PBL stock of HIV-1 RU570 for one week prior to the initiation of vicriviroc selection starting at 0.1 nM. PM-1 cell cultures were passaged weekly by transferring 1 ml of cell culture supernatant and one tenth of the infected cells into fresh PM-1 cultures (1-2×10^6) in the absence (passage control culture, RU570-PC) or presence (RU570-VCV) of vicriviroc. Culture supernatants were subsequently used to re-infect fresh PM-1 cells weekly. Viral supernatants and infected cells were collected periodically for p24 antigen titers, vicriviroc sensitivity testing in PBL described below in the viral replication assay section, and sequence analysis. […]
IL-2/PHA-stimulated PBL were seeded into 96-well plates (200,000 cells/well) pretreated with an equal volume of medium plus vicriviroc or medium only at 37° C. for 1 hour. […] Viral replication was assessed by measuring p24 antigen production by ELISA. The IC50 and IC90 values for vicriviroc susceptibility with these viruses was determined by analyzing dose-response curves using a 4-parameter logistic curve fit model with Prism GraphPad Software Version 4.0 (San Diego, Calif.).
In general terms: In an ELISA, binding on a coated surface is turned into a signal by an enzyme label.

The test system of assay [11] is replication competent HIV-1 virus containing the ADA-C2-V5res chimeric envelope sequence (NL4-3-AD8-C2-V5res). Put plainly: Vicriviroc susceptibility assay with replication competent virus in U87-CD4-CCR5 cells. It counts as cell-based. The settings on record: multi-cycle infection.
From the text: as §2, §3, §4

Where [12] appears, read: Human immunodeficiency virus 1, U87/CD4/CCR5.

For `COC[C@@H](c1ccc(C(F)(F)F)cc1)N1CCN(C2(C)CCN(C(=O)c3c(C)ncnc3C)CC2)C[C@@H]1C` [vicriviroc, Vicriviroc], the IC50 is less than 50 nM in assay [1] (Human immunodeficiency virus 1, RU570-VCV culture until week 45, PBL); 0.07 to 0.2 nM in assay [2] (setting [12]); 0.04 nM in assay [3] (setting [12]); 0.1 nM in assay [4] (setting [12]); 0.025 nM in [5]; 0.025 nM in [6]. Besides, the maximum percent inhibition in assay [1] (RU570-VCV culture until week 45, PBL) is 100%; in [1] (RU570-VCV culture week 93, PBL, flat dose-response curve) it was “approximately 30%”. Moreover, the maximal percent inhibition entry in assay [1] (RU570-VCV culture week 45, PBL) is on record as “approximately 76%”; in [1] (RU570-VCV culture week 47, PBL), approximately 45%. For the same compound, the inhibition at 0.1 µM in assay [2] (Human immunodeficiency virus 1, U87/CD4/CCR5, read-out: maximum inhibition levels) was found to be 100%. Besides, the Emax in [3] (Human immunodeficiency virus 1, U87/CD4/CCR5, read-out: maximum response, percent inhibition) was found to be 100%. For the same compound, the MI values amounted to 100% in assay [3] (parental ADA gp160, regardless of the virus concentration (data not shown)) and 100% in assay [4] (RU570-PC 160 construct, regardless of the virus concentration (data not shown)). Moreover, the maximum inhibition in [4] ({}) and in assay [9] was 100% throughout. Further, the “maximum inhibition (MI), plateau level” value in [7] (2 ng p24 inoculum) is listed as “approximately 80%”; in [7] (high virus inocula, 70 ng p24) it was “approximately 55%”. The “susceptibility to vicriviroc (phenotype)” value in assay [7] (ADA-C2-V5res pseudovirus, U87-CD4-CCR5 cells) is “resistant phenotype”. Further, the susceptibility to vicriviroc entry in assay [8] is “completely susceptible”; in assay [10] it was “remained susceptible”. Also, the “MI (maximum inhibition)” value in assay [11] is given as “approximately 50%”.

As a reminder, the IC50 is the concentration at which inhibition is half-maximal. The term inhibition denotes the percentage by which the read-out fell short of the control.

Values taken from patent US20080220528A1, “HIV GENE CLONING STRATEGY” (SCHERING CORPORATION, priority 2006, published 2008).
